From paper PMC6270171, “In Vitro and In Vivo Antiangiogenic Activity of Caged Polyprenylated Xanthones Isolated from Garcinia hanburyi Hook. f” (Molecules, 2013)
“And” between values parts separate entries of the source, which are not always exact repeats. Identical values can stand only once. Like-named read-outs stand apart in the source and are kept apart here.

Tests used:
HUVEC = HUVEC wound migration assay; assay type: cell-based, human; details: 0.5 μM, 24 h
Procedure: The wound migration assay was performed as previously described. HUVECs were seeded at a plating density of 2 × 10^5 per well in 6-well plates which had been coated with 1% gelatin, cells grown in DMEM medium with 10% FBS overnight. After reaching 100% confluence, the cells were then gently scraped with a plastic tip to produce a wound area. After wounding cells were incubated with fresh DMEM medium with xanthones 1, 3, 7 and 9 at a concentration of 0.5 μM, the migration and cell movement throughout the wound area was examined after 24 h.

HeLa = test: MTT cytotoxicity assay, HeLa; assay type: cell-based; details: Homo sapiens, read-out: IC50 HeLa
Procedure: (§1) The xanthones 1–11 were tested for cytotoxicity against HeLa, A549, HCT-116, and HepG-2 human cancer cell lines and inhibition on the proliferation of the HUVEC cell line by using the MTT assay according to the described protocols.

zebrafish embryos [1] = test: Death rates of treated zebrafish embryos; assay type: in vivo, zebrafish (Danio rerio); details: for Death Rate: eight embryos per well, control 0; for Concentration that caused the death of all zebrafish embryos: highest concentration tested
Procedure: (§2) A transgenic zebrafish line, Tg(flk1:EGFP), with the endothelial- specific flk1 promoter directing enhanced green fluorescent protein (EGFP) expression in all endothelial cells of the vasculature was used. Adult zebrafish were maintained at 28.5 °C in a recirculating aquaculture system. Zebrafish embryos were generated by natural pair-wise mating, collected in the morning and raised at 28.5 °C in embryo water (0.2 g/L of Instant Ocean Salt in distilled water). At 6 h post-fertilization (hpf), the embryos were sorted for viability and developmental stage (shield stage). The embryos were firstly placed in 24-well plates in 1 mL of embryo water with eight embryos per well. Then, the xanthones, at various concentrations, were added to embryo water of each well from the shield stage (about 6 h). Because the fish embryo receives nourishment from an attached yolk ball for the duration of the experiment, no additional maintenance was required during the duration of the experiments. After treatment with the drugs for 24 h, the embryos were anesthetized with 0.05% 2-phenoxyethanol in embryo water. One to three embryos were placed on carry sheet glass and each embryo was examined for the presence of ectopic vessels in the subintestinal vessel plexus (SIV) as an indication of antiangiogenic effect. Photographs were taken under a fluorescence microscope.

[2] = test system: zebrafish embryos Tg(flk1:EGFP); test: Antiangiogenic activity assay on blood vessel formation in zebrafish embryos; assay type: in vivo, zebrafish (Danio rerio); details: for Antiangiogenic activity to zebrafish embryos: concentrations varying from 1 μM to 16 μM; for Concentration with inhibitory effect on ISV formation (Figure 2): zebrafish embryos, 24 h, effects of 3, 7, 9 comparable to GA
Procedure: as §2

zebrafish embryos [3] = test: Heart rates of treated zebrafish embryos; assay type: in vivo, zebrafish (Danio rerio)
A549 = test: MTT cytotoxicity assay, A549; assay type: cell-based; details: Homo sapiens
Procedure: as §1

HCT-116 = test: MTT cytotoxicity assay, HCT-116; assay type: cell-based; details: Homo sapiens
Procedure: as §1

HepG-2 = test: MTT cytotoxicity assay, HepG-2; assay type: cell-based; details: Homo sapiens
Procedure: as §1

HUVEC cell line = test: MTT assay, inhibition of proliferation of HUVEC cell line; assay type: cell-based; details: Homo sapiens, read-out: IC50 HUVEC
Procedure: as §1

[4] = 2 μM, zebrafish embryos, control 21 per 10 s
[5] = 4 μM, zebrafish embryos, control 21 per 10 s
[6] = 8 μM, zebrafish embryos, control 21 per 10 s
[7] = HCT-116, read-out: IC50 HCT-116
[8] = MTT assay, 50% inhibition of cell growth
[9] = Tg(flk1:EGFP), zebrafish, in vivo, 24 h, 2 μM
[10] = Tg(flk1:EGFP), zebrafish, in vivo, 24 h, 4 μM
[11] = Tg(flk1:EGFP), zebrafish, in vivo, 24 h, 8 μM
[12] = A549, MTT assay, 50% inhibition of cell growth, read-out: IC50 A549
[13] = HCT-116, MTT assay, 50% inhibition of cell growth, read-out: IC50 HCT-116
[14] = HepG2, MTT assay, 50% inhibition of cell growth, read-out: IC50 HepG-2
[15] = Tg(flk1:EGFP), zebrafish, in vivo, 24 h, 16 μM
[16] = Tg(flk1:EGFP), zebrafish, in vivo, 24 h, 32 μM
[17] = 1 μM, zebrafish embryos, control 21 per 10 s

Row | Structure (SMILES) | Inhibition of the migration of HUVEC (HUVEC) | Death Rate (zebrafish embryos [1]; 2 μM) | Death Rate (zebrafish embryos [1]; 4 μM) | Death Rate (zebrafish embryos [1]; 8 μM) | Antiangiogenic activity to zebrafish embryos [2] | Concentration with inhibitory effect on ISV formation (Figure 2) [2] | Heart Rate (zebrafish embryos [3]; [4]) [per 10 s] | Heart Rate (zebrafish embryos [3]; [5]) [per 10 s] | Heart Rate (zebrafish embryos [3]; [6]) [per 10 s] | IC50 (HeLa; [8]) [µM] | Heart Rate (zebrafish embryos [3]; [9]) [per 10 s] | Heart Rate (zebrafish embryos [3]; [10]) [per 10 s] | Heart Rate (zebrafish embryos [3]; [11]) [per 10 s] | IC50 (A549; [12]) [µM] | IC50 (HCT-116; [13]) [µM] | IC50 (HepG-2; [14]) [µM] | IC50 (HUVEC cell line; [8]) [µM] | Death Rate (zebrafish embryos [1]; 1 μM) | also measured
1 | CC(C)=CCc1c2c(c(O)c3c1O[C@]14C(=C[C@@H]5C[C@H]1C(C)(C)O[C@@]4(C/C=C(/C)C(=O)O)C5=O)C3=O)C=CC(C)(C)O2 [Xanthone 3, morellic acid] | remarkable inhibition | 0 | 0 | 8/8 | displayed antiangiogenic activity | 4 µM | 8 | 6 | 0 |  |  |  |  |  |  |  |  |  | IC50 (HeLa): 13.8 µM; Concentration that caused the death of all zebrafish embryos (zebrafish embryos [1]): 8 µM; IC50 (A549; A549, read-out: IC50 A549): 14.2 µM; IC50 (HCT-116; [7]): 8.89 µM; IC50 (HepG-2; HepG2, read-out: IC50 HepG-2): 13.3 µM; IC50 (HUVEC cell line): 6.14 µM
2 | CC(C)=CCc1c2c(c(O)c3c1O[C@]14C(=C[C@@H]5C[C@H]1C(C)(C)O[C@@]4(C/C=C(/C)C=O)C5=O)C3=O)C=CC(C)(C)O2 [Xanthone 5, morellin isomers] |  | 0 | 0 | 8/8 |  |  |  |  |  | 5.33 | 13 | 10 | 8 | 6.43 | 2.76 | 5.97 | 2.39 |  | 
3 | CC(C)=CCC/C(C)=C/Cc1c(O)c(CC=C(C)C)c2c(c1O)C(=O)C1=C[C@@H]3C[C@H]4C(C)(C)O[C@@](C/C=C(/C)C=O)(C3=O)[C@@]14O2 [Xanthone 7, gambogenin] | remarkable inhibition |  |  | 0 | displayed antiangiogenic activity | 32 µM |  |  |  | 3.26 |  |  | 6 | 4.88 | 1.3 | 6.51 | 1.04 |  | Heart Rate (zebrafish embryos [3]; [15]): 6 per 10 s; Heart Rate (zebrafish embryos [3]; [16]): 5 per 10 s
4 | CC(C)=CCC[C@]1(C)C=Cc2c(O)c3c(c(CC=C(C)C)c2O1)O[C@]12C(=C[C@@H]4C[C@H]1C(C)(C)O[C@@]2(C/C=C(/C)C(=O)O)C4=O)C3=O [Xanthone 1, gambogic acid] | remarkable inhibition | 1/8 | 8/8 |  | displayed antiangiogenic activity | 1 µM and 2 µM |  |  |  | 1.59 | 3 | 0 |  | 1.55 | 0.64 | 0.78 | 0.72 | 0 | Concentration that caused the death of all zebrafish embryos (zebrafish embryos [1]): 4 µM; Heart Rate (zebrafish embryos [3]; Tg(flk1:EGFP), zebrafish, in vivo, 24 h, 1 μM): 8 per 10 s
5 | CC(C)=CCC/C(C)=C/Cc1c(O)c(CC=C(C)C)c2c(c1O)C(=O)C1=C[C@@H]3C[C@H]4C(C)(C)O[C@@](C/C=C(\C)C=O)(C3=O)[C@@]14O2 [Xanthone 6, isogambogenin] |  |  |  | 0 |  |  |  |  |  | 4.07 |  |  | 17 | 4.88 | 1.47 | 2.44 | 2.12 |  | Death Rate (zebrafish embryos [1]; 16 μM): 1/8; Death Rate (zebrafish embryos [1]; 32 μM): 4/8; Heart Rate (zebrafish embryos [3]; [15]): 14 per 10 s; Heart Rate (zebrafish embryos [3]; [16]): 8 per 10 s
6 | CC(C)=CCC/C(C)=C/Cc1c(O)c(CC=C(C)C)c2c(c1O)C(=O)C1=C[C@@H]3C[C@H]4C(C)(C)O[C@@](C/C=C(\C)C(=O)O)(C3=O)[C@@]14O2 [Xanthone 9, isogambogenic acid] | remarkable inhibition | 0 | 0 | 8/8 | displayed antiangiogenic activity | 4 µM | 8 | 5 | 0 | 6.35 |  |  |  | 12.7 | 11.7 | 6.35 | 1.73 |  | Concentration that caused the death of all zebrafish embryos (zebrafish embryos [1]): 8 µM
7 | CC(C)=CCC/C(C)=C/Cc1c(O)c(CC=C(C)C)c2c(c1O)C(=O)C1=C[C@@H]3C[C@H]4C(C)(C)O[C@@](CC=C(C)C)(C3=O)[C@@]14O2 [Xanthone 11, desoxygambogenin] |  | 0 | 0 | 0 |  |  | 21 | 21 | 20 |  |  |  |  |  |  |  |  | 0 | IC50 (HeLa): 2.95 µM; Heart Rate (zebrafish embryos [3]; [17]): 21 per 10 s; IC50 (A549; A549, read-out: IC50 A549): 1.8 µM; IC50 (HCT-116; [7]): 1.35 µM; IC50 (HepG-2; HepG2, read-out: IC50 HepG-2): 1.15 µM; IC50 (HUVEC cell line): 1.6 µM
8 | CC(C)=CCc1c2c(c(O)c3c1O[C@]14C(=C[C@@H]5C[C@H]1C(C)(C)O[C@@]4(CC=C(C)C)C5=O)C3=O)C=CC(C)(C)O2 [Xanthone 10, desoxymorellin] |  | 0 | 0 | 0 |  |  | 17 | 16 | 16 |  |  |  |  |  |  |  |  | 0 | IC50 (HeLa): 2.6 µM; Heart Rate (zebrafish embryos [3]; [17]): 20 per 10 s; IC50 (A549; A549, read-out: IC50 A549): 2.05 µM; IC50 (HCT-116; [7]): 1.2 µM; IC50 (HepG-2; HepG2, read-out: IC50 HepG-2): 1 µM; IC50 (HUVEC cell line): 0.9 µM
9 | CC(C)=CCC/C(C)=C/Cc1c(O)c2c(c3c1O[C@@H](C(C)(C)O)C3)O[C@]13C(=C[C@@H]4C[C@H]1C(C)(C)O[C@@]3(C/C=C(/C)C(=O)O)C4=O)C2=O [Xanthone 4, gambogenific acid] |  | 0 | 0 | 0 |  |  |  |  |  | 7.58 | 21 | 17 | 13 | 11.3 | 4.49 | 10.2 | 2.48 |  | 
10 | CC(C)=CCCC1(C)C=Cc2c(O)c3c(c(CC=C(C)C)c2O1)O[C@]12C(=C[C@@H]4C[C@H]1C(C)(C)O[C@@]2(C/C=C(\C)C(=O)O)C4=O)C3=O (stereo partly drawn) [Xanthone 8, isogambogic acid] |  | 0 | 1/8 | 6/8 |  |  |  |  |  | 4.77 | 17 | 13 | 6 | 2.86 | 1.59 | 6.37 | 0.91 |  | 
11 | CC(C)=CCC/C(C)=C/Cc1c(O)c(CC=C(C)C)c2c(c1O)C(=O)C1=C[C@@H]3C[C@H]4C(C)(C)O[C@@](C/C=C(/C)C(=O)O)(C3=O)[C@@]14O2 [Xanthone 2, gambogenic acid] |  | 0 | 8/8 |  |  |  | 18 | 0 |  | 11.5 |  |  |  | 4.76 | 4.76 | 6.35 | 4.12 | 0 | Heart Rate (zebrafish embryos [3]; [17]): 21 per 10 s
